Test results published in patent publication US4742049A, “Semisynthetic erythromycin antibiotics” (Abbott Laboratories, priority 1986, dated 1988).
Converted amounts (≈) assume the structure as drawn. Read-outs that look alike come from different tables or passages of the source.

Columns and labels:
E. coli = assay: antimicrobial spectrum, agar dilution MIC; format: cell-based; details: Escherichia coli, BHI agar, 20-24 hours
Pseudomonas cepacia = assay: antimicrobial spectrum, agar dilution MIC; format: cell-based; details: Burkholderia cepacia, strain 2961; BHI agar, 20-24 hours; read-out: MIC
Description: (§1) Erythromycin A was used for this purpose.
(§2) After incubation, each disk is read.

Micrococcus luteus = assay: antimicrobial spectrum, agar dilution MIC; format: cell-based; details: 20-24 hours
Acinetobacter SP = assay: antimicrobial spectrum, agar dilution MIC; format: cell-based; details: strain CMX 669, BHI agar, 20-24 hours
Klebsiella pneumoniae = assay: antimicrobial spectrum, agar dilution MIC; format: cell-based; details: strain 8045, BHI agar, 20-24 hours
Ent. aerogenes = assay: antimicrobial spectrum, agar dilution MIC; format: cell-based; details: Klebsiella aerogenes, BHI agar, 20-24 hours
[1] = test system: gut contractions (stomach, duodenum, jejunum); details: dog, in vivo, iv, 4 mg/kg
Description: Compounds of this invention have been tested for gastrointestinal stimulating activity in a dog model at 4 mg/kg intravenously. Contractions in the gut were recorded with surgically implanted strain gauges. […] Ratios were calculated for the stomach, duodenum and jejunum, and a final arithmetic mean index was calculated and reported in Table 1.

Staph. aureus = assay: antimicrobial spectrum, agar dilution MIC; format: cell-based; details: Staphylococcus aureus, BHI agar, 20-24 hours
Description: (§3) Twelve petri dishes containing successive aqueous dilutions of the test compound mixed with 10 ml of sterilized Brain Heart Infusion agar (Difco 0418-01-5) are prepared. Each plate is inoculated with 1:100 (or 1:10 for slow-growing strains, primarily Micrococcus and Streptococcus) dilutions of up to 32 different microorganisms, using a Steers replicator block. The inoculated plates are incubated at 35°-37° C. for 20-24 hours. In addition, a control plate, using BHI agar containing no test compound, is prepared and incubated at the beginning and end of each test.
(§4) An additional plate containing a compound having known susceptibility patterns for the organisms being tested and belonging to the same antibiotic class as the test compound is also prepared and incubated as a further control, as well as to provide test-to-test comparability.
(§5) After incubation, each disk is read. The MIC is defined as the lowest concentration of drug yielding no growth, a slight haze, or sparsely isolated colonies on the inoculum spot as compared to the growth control.

Staph. epidermidis = assay: antimicrobial spectrum, agar dilution MIC; format: cell-based; details: Staphylococcus epidermidis
Description: as §3, §4, §5

Strep. agalactiae = assay: antimicrobial spectrum, agar dilution MIC; format: cell-based; details: Streptococcus agalactiae, strain CMX 508; BHI agar, 20-24 hours
Description: as §3, §4, §5

Strep. bovis = assay: antimicrobial spectrum, agar dilution MIC; format: cell-based; details: Streptococcus equinus, strain A5169; BHI agar, 20-24 hours
Description: as §3, §4, §5

Pseudomonas aeruginosa = assay: antimicrobial spectrum, agar dilution MIC; format: cell-based; details: Pseudomonas aeruginosa, BHI agar, 20-24 hours
Description: as §3, §4, §5

Providencia stuartii = assay: antimicrobial spectrum, agar dilution MIC; format: cell-based; details: strain CMX 640, BHI agar, 20-24 hours
Description: as §3, §4, §5

Strep. faecium = assay: antimicrobial spectrum, agar dilution MIC; format: cell-based; details: Enterococcus faecium
Description: as §3, §4, §5

Strep. pyogenes = assay: antimicrobial spectrum, agar dilution MIC; format: cell-based; details: Streptococcus pyogenes, BHI agar, 20-24 hours
Description: as §3, §4, §5

Lactobacillus Casei = assay: antimicrobial spectrum, agar dilution MIC; format: cell-based; details: Lacticaseibacillus casei, ATCC7469, strain ATCC 7469; BHI agar, 20-24 hours
gastointestinal motility = assay: gastrointestinal motility in sensitive animal models (general statement); format: in vivo; details: compared with parent erythromycin compound
Haemophilus influenzae = assay: MIC against strains of Haemophilus influenzae; format: cell-based; details: Haemophilus influenzae, read-out: MIC
Description: as §1, §2
In the manner of Example 23, the efficacy of compounds of this invention were tested against numerous strains of Haemophilus influenzae.

[2] = strain 3519 RARI, BHI agar, 20-24 hours

| Compound | MIC (E. coli; strain DC-2) [µg/mL] | MIC (E. coli; strain H560) [µg/mL] | MIC (E. coli; strain JUHL) [µg/mL] | MIC (E. coli; strain KNK 437) [µg/mL] | MIC (E. coli; strain SS) [µg/mL] | MIC (Pseudomonas cepacia) [µg/mL] | MIC (Micrococcus luteus; strain 9341, BHI agar) [µg/mL] | MIC (Acinetobacter SP) [µg/mL] | MIC (Klebsiella pneumoniae) [µg/mL] | Gastrointestinal Motility Index [1] | MIC (Staph. aureus; ATCC6538P, strain ATCC 6538P) [µg/mL] | MIC (Staph. aureus; strain 45) [µg/mL] | MIC (Staph. aureus; strain 45 RAR 2) [µg/mL] | MIC (Staph. aureus; strain A5177) [µg/mL] | MIC (Staph. aureus; strain CMX 686B) [µg/mL] | MIC (Staph. epidermidis; [2]) [µg/mL] | MIC (Strep. agalactiae) [µg/mL] | MIC (Strep. bovis) [µg/mL] | MIC (Pseudomonas aeruginosa; strain 5007) [µg/mL] | MIC (Pseudomonas aeruginosa; strain BMH10) [µg/mL] | further results |
| --- | --- | --- | --- | --- | --- | --- | --- | --- | --- | --- | --- | --- | --- | --- | --- | --- | --- | --- | --- | --- | --- |
| CC[C@H]1OC(=O)[C@H](C)[C@@H](O[C@H]2C[C@@](C)(OC)[C@@H](O)[C@H](C)O2)[C@H](C)[C@@H](O[C@@H]2O[C@H](C)C[C@H](N(C)C)[C@H]2O)[C@](C)(OC)C[C@@H](C)C(=O)[C@H](C)[C@H]2N(C)C(=O)O[C@]12C [Example 4, 11-deoxy-6-O-methyl erythromycin A 11,12-(N-methyl)cyclic carbamate] | 25 (≈ 31.8 µM) | 12.5 (≈ 15.9 µM) | 25 (≈ 31.8 µM) | 50 (≈ 63.5 µM) | 0.1 (≈ 0.127 µM) | 100 (≈ 127 µM) | 0.01 (≈ 0.0127 µM) | 12.5 (≈ 15.9 µM) | 50 (≈ 63.5 µM) | 1.27 | 0.1 (≈ 0.127 µM) | 0.1 (≈ 0.127 µM) | 0.2 (≈ 0.254 µM) | 0.39 (≈ 0.496 µM) | 0.1 (≈ 0.127 µM) | 0.2 (≈ 0.254 µM) | 0.02 (≈ 0.0254 µM) | 0.02 (≈ 0.0254 µM) | 100 (≈ 127 µM) | 50 (≈ 63.5 µM) | MIC (Micrococcus luteus; strain 4698, BHI agar): 0.05 µg/mL (≈ 0.0635 µM); MIC (Ent. aerogenes; ATCC10348, strain ATCC 10348): 50 µg/mL (≈ 63.5 µM); MIC (Staph. epidermidis; strain 3519, BHI agar, 20-24 hours): 0.2 µg/mL (≈ 0.254 µM); MIC (Pseudomonas aeruginosa; strain K799/61, read-out: MIC): 0.78 µg/mL (≈ 0.991 µM); MIC (Pseudomonas aeruginosa; strain K799/WT): 100 µg/mL (≈ 127 µM); MIC (Providencia stuartii): > 100 µg/mL; MIC (Strep. faecium; ATCC8043, strain ATCC 8043, BHI agar, 20-24 hours): 0.05 µg/mL (≈ 0.0635 µM); MIC (Strep. pyogenes; strain 930): > 100 µg/mL; MIC (Strep. pyogenes; strain EES61): 0.01 µg/mL (≈ 0.0127 µM); MIC (Lactobacillus Casei): 0.01 µg/mL (≈ 0.0127 µM) |
| CC[C@H]1OC(=O)[C@H](C)[C@@H](O[C@H]2C[C@@](C)(OC)[C@@H](O)[C@H](C)O2)[C@H](C)[C@@H](O[C@@H]2O[C@H](C)C[C@H](N(C)C)[C@H]2O)[C@](C)(OC)C[C@@H](C)C(=O)[C@H](C)[C@H]2N(CCN(C)C)C(=O)O[C@]12C [Example 9, 11-deoxy-6-O-methyl erythromycin A 11,12-[N-(2-dimethylamino)ethyl]cyclic carbamate] |  |  |  |  |  |  |  |  |  | .013 |  |  |  |  |  |  |  |  |  |  | gastointestinal motility and associated side-effects (gastointestinal motility): much less gastointestinal motility and associated side-effects than the parent erythromycin compound; MIC (Haemophilus influenzae; ATCC9006, strain ATCC 9006): 0.25 µg/mL (≈ 0.296 µM); MIC (Haemophilus influenzae; ATCC9795, strain ATCC 9795): 0.25 µg/mL (≈ 0.296 µM); MIC (Haemophilus influenzae; ATCC10211, strain ATCC 10211): 0.5 µg/mL (≈ 0.592 µM); MIC (Haemophilus influenzae; ATCC19418, strain ATCC 19418): 0.5 µg/mL (≈ 0.592 µM); MIC (Haemophilus influenzae; strain 504): 1 µg/mL (≈ 1.18 µM); MIC (Haemophilus influenzae; strain 519A): 0.5 µg/mL (≈ 0.592 µM); MIC (Haemophilus influenzae; strain 566A): 0.5 µg/mL (≈ 0.592 µM); MIC (Haemophilus influenzae; strain 588A): 0.25 µg/mL (≈ 0.296 µM); MIC (Haemophilus influenzae; strain 632A): 0.5 µg/mL (≈ 0.592 µM); MIC (Haemophilus influenzae; strain 667A): 0.25 µg/mL (≈ 0.296 µM); MIC (Haemophilus influenzae; strain 747C): 0.25 µg/mL (≈ 0.296 µM); MIC (Haemophilus influenzae; strain 751): 0.25 µg/mL (≈ 0.296 µM); MIC (Haemophilus influenzae; strain 1177): 0.5 µg/mL (≈ 0.592 µM); MIC (Haemophilus influenzae; strain 1435): 0.12 µg/mL (≈ 0.142 µM); MIC (Haemophilus influenzae; strain 5036B): 0.5 µg/mL (≈ 0.592 µM); MIC (Haemophilus influenzae; strain DILL AMP R): 0.25 µg/mL (≈ 0.296 µM); MIC (Haemophilus influenzae; strain SOL AMP R): 0.25 µg/mL (≈ 0.296 µM); MIC (Haemophilus influenzae; strain SPK AMP R): 0.25 µg/mL (≈ 0.296 µM) |
| CC[C@H]1OC(=O)[C@H](C)[C@@H](O[C@H]2C[C@@](C)(OC)[C@@H](O)[C@H](C)O2)[C@H](C)[C@@H](O[C@@H]2O[C@H](C)C[C@H](N(C)C)[C@H]2O)[C@](C)(OC)C[C@@H](C)C(=O)[C@H](C)[C@H]2N(Cc3ccccc3)C(=O)O[C@]12C [Example 3, 11-deoxy-6-O-methyl erythromycin A 11,12-(N-benzyl)cyclic carbamate] | 25 (≈ 29 µM) | 6.2 (≈ 7.18 µM) | 25 (≈ 29 µM) | 25 (≈ 29 µM) | 0.39 (≈ 0.452 µM) | 50 (≈ 57.9 µM) | 0.05 (≈ 0.0579 µM) | 50 (≈ 57.9 µM) | 25 (≈ 29 µM) |  | 0.39 (≈ 0.452 µM) | 0.1 (≈ 0.116 µM) | 0.39 (≈ 0.452 µM) | 0.78 (≈ 0.904 µM) | 0.39 (≈ 0.452 µM) | 0.2 (≈ 0.232 µM) | 0.02 (≈ 0.0232 µM) | 0.02 (≈ 0.0232 µM) | > 100 | 25 (≈ 29 µM) | MIC (Ent. aerogenes; ATCC13048, strain ATCC 13048, read-out: MIC): 50 µg/mL (≈ 57.9 µM); MIC (Staph. epidermidis): 0.2 µg/mL (≈ 0.232 µM); MIC (Pseudomonas aeruginosa; strain K799/61): 3.1 µg/mL (≈ 3.59 µM); MIC (Pseudomonas aeruginosa; strain K799/WT): > 100 µg/mL; MIC (Providencia stuartii): > 100 µg/mL; MIC (Strep. faecium; ATCC8043): 0.1 µg/mL (≈ 0.116 µM); MIC (Strep. pyogenes; strain 930): 100 µg/mL (≈ 116 µM); MIC (Strep. pyogenes; strain EES61): 0.02 µg/mL (≈ 0.0232 µM); MIC (Lactobacillus Casei): 0.05 µg/mL (≈ 0.0579 µM) |
